Experimental findings from US9758485B2, “Compounds for controlling arthropods” (priority 2013, dated 2017) are described below.

As usually defined, the log P is a log measure of how a compound divides between an organic and an aqueous phase. Higher therefore signals higher lipophilicity. As a reminder, the logP is the decadic logarithm of the partition coefficient of the neutral form, usually between octanol and water. A high value points to a more lipophilic compound.

Like-named read-outs stand apart in the source and are kept apart here.

In one data set the test system is Boophilus microplus. Nature of the data set: Boophilus microplus - injection test. It is filed as in vivo. Particulars: application rate 20 μg/animal; injected into engorged adult female ticks; laying of fertile eggs, after 7 days. As to the method:
Boophilus microplus—Injection Test
(§1) Solvent: dimethyl sulphoxide
To produce an appropriate active ingredient formulation, 10 mg of active ingredient are mixed with 0.5 ml of solvent and the concentrate is diluted with solvent to the desired concentration.
1 μl of the active ingredient solution is injected into the abdomen of 5 engorged adult female cattle ticks (Boophilus microplus). The animals are transferred into dishes and kept in a climate-controlled room.
Efficacy is assessed after 7 days by laying of fertile eggs. Eggs which are not visibly fertile are stored in a climate-controlled cabinet until the larvae hatch after about 42 days. An efficacy of 100% means that none of the ticks has laid any fertile eggs; 0% means that all the eggs are fertile.

The nature of data set [1]: logP determination by HPLC on a reversed-phase column (C18), EEC Directive 79/831 Annex V.A8. The class given is physicochemical. Particulars: for logP^a): HPLC-MS method a), Table I-T3.
Another data set relates to Ctenocephalides felis. Nature of the data set: Ctenocephalides felis - oral test. Particulars: application rate 100 ppm in citrated cattle blood; adult fleas; kill after 2 days. It is filed as in vivo. As to the method:
Ctenocephalides felis—Oral Test
as §1
For the purpose of producing an appropriate active ingredient formulation, 10 mg of active ingredient are mixed with 0.5 ml of dimethyl sulphoxide. Dilution with citrated cattle blood gives the desired concentration.
About 20 unfed adult cat fleas (Ctenocephalides felis) are placed into a chamber which is closed at the top and bottom with gauze. A metal cylinder whose bottom end is closed with parafilm is placed onto the chamber. The cylinder contains the blood/active ingredient preparation, which can be imbibed by the fleas through the parafilm membrane.
After 2 days, the kill in % is determined. 100% means that all of the fleas have been killed; 0% means that none of the fleas have been killed.

The subject of the next data set is Lucilia cuprina. In words: Lucilia cuprina test. As to conditions: application rate 100 ppm, L1 larvae in minced horsemeat, kill after 2 days. It is filed as in vivo. On the procedure:
as §1
To produce an appropriate active ingredient formulation, 10 mg of active ingredient are mixed with 0.5 ml of dimethyl sulphoxide, and the concentrate is diluted with water to the desired concentration.
About 20 L1 larvae of the Australian sheep blowfly (Lucilia cuprina) are transferred into a test vessel containing minced horsemeat and the active ingredient preparation of the desired concentration.
After 2 days, the kill in % is determined. 100% means that all the larvae have been killed; 0% means that none of the larvae have been killed.

Setting [2] is: HPLC-MS, reversed-phase column (C18).
The mark [3] stands for this setting: reversed-phase HPLC column (C18), HPLC, reversed-phase C18, acetonitrile/water with formic acid, 55° C., read-out: logP.
The mark [4] stands for this setting: HPLC on reversed-phase column (C18).

As to `Cc1cc(C(F)(C(F)(F)F)C(F)(F)F)cc(C)c1-n1cc(-c2cc(C(=O)NC3CC3)c(F)cc2Cl)cn1` [I-T3-11], the efficacy in the data set with Boophilus microplus is given as 100%; in the data set on Ctenocephalides felis it was 95%. Also, the “logP^a)” value in data set [1] turned out to be 4.9.
Regarding `CCc1cc(C(F)(F)C(F)(F)F)cc(C)c1-n1cc(-c2ccc(Cl)c(C(=O)NC3CSC3)c2)cn1` [I-T3-83], the efficacy is recorded as 100% in the data set on Lucilia cuprina, 100% in the data set with Boophilus microplus and 95% in the data set on Ctenocephalides felis. Also, in data set [1], the “logP^a)” value turned out to be 4.6.
In the case of `N#CC1(NC(=O)c2cc(-c3cnn(-c4ncc(C(F)(F)F)cc4Cl)c3)ccc2Cl)CC1` [I-T3-59], the efficacy with Lucilia cuprina, in the data set on Boophilus microplus and with Ctenocephalides felis was 100% in each case. For the same compound, the “logP^a)” value in data set [1] came out at 3.1.
On to `Cc1cc(C(F)(C(F)(F)F)C(F)(F)F)cc(C)c1-n1cc(-c2cc(C(=O)NC3(C#N)CC3)cc(C(F)(F)F)c2)cn1` [I-T3-18], for which the efficacy in the data set with Lucilia cuprina, with Boophilus microplus and in the data set with Ctenocephalides felis was 100% throughout. Moreover, the “logP^a)” value in data set [1] was determined as 4.7.
In the case of `Cc1cc(C(F)(C(F)(F)F)C(F)(F)F)cc(C)c1-n1cc(-c2cccc(C(=O)NC3(C#N)CC3)c2F)cn1` [I-T3-10], the efficacy in the data set with Lucilia cuprina, in the data set with Boophilus microplus and with Ctenocephalides felis was 100% throughout. Also, the “logP^a)” value in data set [1] amounted to 4.2.
As to `Cc1cc(C(F)(C(F)(F)F)C(F)(F)F)cc(C)c1-n1cc(-c2cnc(C3CC3)c(C(=O)N(C)C3CC3)c2)cn1` [I-T3-142], the efficacy with Boophilus microplus is 100%. In addition, the “log P” value in data set [1] (setting [2]) is on record as 4.6.
`Cc1cc(C(F)(C(F)(F)F)C(F)(F)F)cc(C)c1-n1cc(-c2cc(C(=O)NC3CC3)ccc2F)cn1` [I-T3-13]: the efficacy with Boophilus microplus came out at 100%; with Ctenocephalides felis, 80%. For the same compound, the “logP^a)” value in data set [1] was 4.5.
Consider `O=C(NC1CC1)c1cc(-c2cnn(-c3c(Cl)cc(C(F)(C(F)(F)F)C(F)(F)F)cc3Cl)c2)cnc1N1CCCC1` [I-T3-135], for which the “log P” value in data set [1] (setting [2]) stood at 4.3. This compound gave an efficacy in the data set with Ctenocephalides felis of 100%.
For `Cc1cc(C(F)(C(F)(F)F)C(F)(F)F)cc(C)c1-n1cc(-c2ncc(Cl)c(C(=O)NC3CC3)n2)cn1` [I-T3-121, 5-chloro-N-cyclopropyl-2-[1-[2,6-dimethyl-4-[1,2,2,2-tetrafluoro-1-(trifluoromethyl)ethyl]phenyl]pyrazol-4-yl]pyrimidine-4-carboxamide], in the data set on Lucilia cuprina (Lucilia cuprina, 48 h, read-out: efficacy), the pest or weed control at 100 ppm amounted to 80%. The chromatographic logP was determined as 4.5 in data set [1] (setting [3]); 4.5 in data set [1] (reversed-phase HPLC column (C18), HPLC-MS method a), reversed-phase column (C18); read-out: logP^a)); 4.5 in data set [1] (reversed-phase HPLC column (C18), HPLC-MS, reversed-phase column (C18), read-out: log P).
As for `Cc1cc(C(F)(C(F)(F)F)C(F)(F)F)cc(C)c1-c1ccn(-c2ccc(Cl)c(C(=O)NC3(C#N)CC3)c2)n1` [I-T2-2], the efficacy with Boophilus microplus is reported as 100%.
Turning to `Cc1cc(C(F)(C(F)(F)F)C(F)(F)F)cc(C)c1-n1cc(-c2cc(C(=O)NC3(C#N)CC3)c(F)cc2Cl)cn1` [I-T3-12], the efficacy in the data set on Lucilia cuprina is 80%; in the data set with Boophilus microplus, 100%; in the data set with Ctenocephalides felis it was 100%. Further, the “logP^a)” value in data set [1] is reported as 4.7.
With `CCc1cc(C(F)(C(F)(F)F)C(F)(F)F)ccc1-n1cc(-c2cncc(C(=O)NC3(C#N)CC3)c2)cn1` [I-T3-78], the efficacy with Lucilia cuprina, in the data set on Boophilus microplus and with Ctenocephalides felis was 100% throughout. Moreover, the “logP^a)” value in data set [1] is 3.8.
For `CCc1cc(C(F)(C(F)(F)F)C(F)(F)F)ccc1-n1cc(-c2ccc(Cl)c(C(=O)NC3CSC3)c2)cn1` [I-T3-41], the efficacy was determined as 90% in the data set with Lucilia cuprina, 100% with Boophilus microplus and 95% in the data set with Ctenocephalides felis. The “logP^a)” value in data set [1] is reported as 4.9.
Regarding `N#CC1(NC(=O)c2cc(-c3cnn(-c4c(F)cc(C(F)(F)F)cc4F)c3)ccc2Cl)CC1` [I-T3-49], the efficacy with Lucilia cuprina, in the data set with Boophilus microplus and with Ctenocephalides felis was 100% in each case. Moreover, in data set [1], the “logP^a)” value is recorded as 3.2.
`Cc1cc(C(F)(C(F)(F)F)C(F)(F)F)cc(C)c1-n1cc(-c2ccc(Cl)c(C(=O)NCC(=O)NCC(F)(F)F)c2)cn1` [I-T3-6]: the efficacy in the data set with Lucilia cuprina and in the data set on Boophilus microplus was 100% in each case. The “logP^a)” value in data set [1] was determined as 4.1.
For the compound `Cc1cc(C(F)(C(F)(F)F)C(F)(F)F)cc(C)c1-n1cc(-c2cc(C(=O)NC3(C#N)CC3)ccc2F)cn1` [I-T3-19], the efficacy was 100% in the data set with Boophilus microplus and 95% with Ctenocephalides felis. The “logP^a)” value in data set [1] was 4.3.
`Cc1ccc(C(=O)NC2CC2)cc1-c1cnn(-c2c(C)cc(C(F)(C(F)(F)F)C(F)(F)F)cc2C)c1` [I-T3-16]: in data set [1], the “logP^a)” value is reported as 4.4. This compound displayed an efficacy in the data set with Ctenocephalides felis of 80%.
For `CCc1cc(C(F)(C(F)(F)F)C(F)(F)F)ccc1-n1cc(-c2cccc(C(=O)NC3CC3)c2F)cn1` [I-T3-75], the efficacy amounted to 80% with Lucilia cuprina and 90% with Boophilus microplus. The “logP^a)” value in data set [1] worked out at 4.7.
Consider `CCc1cc(C(F)(C(F)(F)F)C(F)(F)F)ccc1-n1cc(-c2cccc(C(=O)NC3(C#N)CC3)c2F)cn1` [I-T3-74], for which the efficacy in the data set with Lucilia cuprina is given as 90%; with Boophilus microplus it was 100%. The “logP^a)” value in data set [1] is 4.5.
Take `NC(=O)C1(NC(=O)c2cc(-c3cnn(-c4c(F)c(F)c(C(F)(F)F)c(F)c4F)c3)ccc2Cl)CC1` [I-T3-194]: in data set [1] (setting [4]), the “log P” value was 2.8.
On to `O=C(NC1CC1)c1cc(-c2cnn(-c3c(Cl)cc(C(F)(C(F)(F)F)C(F)(F)F)cc3I)c2)ccc1Cl` [I-T3-213], for which, in data set [1] (setting [4]), the “log P” value is given as 4.4.
Still for that read-out and setting: the figure for `N#CC1(NC(=O)c2cc(-c3cnn(-c4c(Cl)cc(C(O)(C(F)(F)F)C(F)(F)F)cc4Cl)c3)cnc2Cl)CC1` [I-T3-222] is 3.0; for `CC[S+]([O-])c1cc(C(F)(C(F)(F)F)C(F)(F)F)cc(C)c1-n1cc(-c2ccc(Cl)c(C(=O)NC3(C#N)CC3)c2)cn1` (centres unmarked) [I-T3-206] it is 3.6.
`CN(C(=O)c1cc(-c2ccn(-c3c(Cl)cc(C(F)(C(F)(F)F)C(F)(F)F)cc3Cl)c2)cnc1Cl)C1(C#N)CC1` [I-T46-6]: the logP in data set [1] (HPLC, reversed-phase C18, acetonitrile/water with formic acid, 55° C.) was 4.8.
With `CC[S+]([O-])c1cc(C(F)(F)F)cc(Cl)c1-n1cc(-c2ccc(Cl)c(C(=O)NC3CC3)c2)cn1` (centres unmarked) [I-T3-179], the “log P” value in data set [1] (setting [2]) worked out at 3.0.
Turning to `CN(C(=O)c1cc(-c2cnn(-c3c(Cl)cc(C(F)(C(F)(F)F)C(F)(F)F)cc3OC(F)F)c2)cnc1Cl)C1CC1` [I-T3-217], in data set [1] (setting [4]), the “log P” value worked out at 4.2.
The same measure, in the same setting: in the case of `CN(C(=O)c1cc(-c2cnn(-c3c(Cl)cc(C(F)(C(F)(F)F)C(F)(F)F)cc3OC(F)F)c2)ccc1Cl)C1CC1` [I-T3-216] it was 4.7.
Regarding `CN(C(=O)c1cc(-c2cnn(-c3ccc(C(F)(C(F)(F)F)C(F)(F)F)cc3C(F)(F)F)c2)ccc1Cl)C1CC1` [I-T3-134], the “log P” value in data set [1] (setting [2]) was 4.9.
For `CCSc1cc(C(F)(C(F)(F)F)C(F)(F)F)cc(Cl)c1-n1cc(-c2ccc(Cl)c(C(=O)NC3(C#N)CC3)c2)cn1` [I-T3-192], the “log P” value in data set [1] (setting [4]) was 4.5.
On the same count and under the same terms, in the case of `Cc1cc(C(F)(C(F)(F)F)C(F)(F)F)cc(C(F)(F)F)c1-n1cc(-c2cnc(Cl)c(C(=O)NCC3(C#N)CC3)c2)cn1` [I-T3-197] it was 4.0.
Consider `CCSc1cc(C(F)(F)F)cc(C#N)c1-n1cc(-c2ccc(Cl)c(C(=O)NC3(C#N)CC3)c2)cn1` [I-T3-177], for which the “log P” value in data set [1] (setting [2]) came to 3.4.
`N#CC1(NC(=O)c2cc(-c3cnn(-c4c(F)cc(C(F)(F)F)cc4Cl)c3)ccc2Cl)CC1` [I-T3-187]: the “log P” value in data set [1] (setting [4]) stood at 3.3.
With `CCOc1cc(C(F)(C(F)(F)F)C(F)(F)F)cc(OCC)c1-n1cc(-c2cnc(Cl)c(C(=O)N(C)C3CC3)c2)cn1` [I-T3-211], the “log P” value in data set [1] (setting [4]) turned out to be 4.7.
As to `N#CC1(NC(=O)c2cc(-c3cnn(-c4c(Cl)cc(C(F)(F)F)cc4[N+](=O)[O-])c3)ccc2Cl)CC1` [I-T3-169], in data set [1] (setting [2]), the “log P” value stood at 3.2.
Turning to `N#CC1(NC(=O)c2cc(-c3cnn(-c4c(Cl)cc(C(F)(C(F)(F)F)C(F)(F)F)cc4OC(F)F)c3)ccc2Cl)CC1` [I-T3-215], the “log P” value in data set [1] (setting [4]) is 4.1.
As for `O=C(NC1CC1)c1cc(-c2cnn(-c3c(Cl)cc(C(O)(C(F)(F)F)C(F)(F)F)cc3Cl)c2)cnc1Cl` [I-T3-221], the “log P” value in data set [1] (setting [4]) is given as 3.0.
With `Cc1cc(C(F)(C(F)(F)F)C(F)(F)F)cc(C(F)(F)F)c1N` [4-heptafluoroisopropyl-2-methyl-6-trifluoromethylaniline], the chromatographic logP in data set [1] (setting [3]) came out at 4.67.
Turning to `CCS(=O)(=O)c1cc(C(F)(F)F)cc(Cl)c1-n1cc(-c2ccc(Cl)c(C(=O)NC3(C#N)CC3)c2)cn1` [I-T3-183], the “log P” value in data set [1] (setting [4]) came out at 3.1.
